Assays:
human Gcg receptor = target: T1, human Gcg receptor (Homo sapiens, UniProt P47871); test: [125I]-Glucagon binding (SPA), human Gcg receptor; details: read-out: hGLcgR Ki, nM (SEM, n)
T1 construct: expressed in transfected cells; crude membranes
Summary of the method: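 Cell pellets were lysed in hypotonic Tris buffer, pH 7.5, homogenized, and spun at low then high speed to give crude membranes. Ki was derived from the fitted IC50.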

human GLP-1R = human GLP-1R (Homo sapiens, UniProt P43220); test: [125I]-GLP-1 binding (SPA), human GLP-1 receptor; parameters: expressed in transfected cells; crude membranes; details: read-out: hGLP1R Ki, (nM) (SEM, n)
Summary of the method: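 Assay buffer: HEPES 25 mM, pH 7.4, CaCl2 2.5 mM, MgCl2 1 mM, with EDTA-free protease inhibitors. Receptor came from crude cell membranes prepared by homogenization and centrifugation at 4° C. IC50s came from four-parameter fits (maximum, minimum, IC50, Hill slope) and were expressed as Ki geometric means with SEM.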

[1] = target: T2, gastric inhibitory peptide receptor (GIPR) (Homo sapiens, UniProt P48546); test: cAMP pharmacological functional assay in presence of casein, hGIPR; type: cell-based; details: HEK293 cells expressing hGIPR, 0.1% Casein, geometric mean; read-out: hGIPR cAMP Rel EC50 nM (SEM, n)
T2 sequence (P48546 22-466): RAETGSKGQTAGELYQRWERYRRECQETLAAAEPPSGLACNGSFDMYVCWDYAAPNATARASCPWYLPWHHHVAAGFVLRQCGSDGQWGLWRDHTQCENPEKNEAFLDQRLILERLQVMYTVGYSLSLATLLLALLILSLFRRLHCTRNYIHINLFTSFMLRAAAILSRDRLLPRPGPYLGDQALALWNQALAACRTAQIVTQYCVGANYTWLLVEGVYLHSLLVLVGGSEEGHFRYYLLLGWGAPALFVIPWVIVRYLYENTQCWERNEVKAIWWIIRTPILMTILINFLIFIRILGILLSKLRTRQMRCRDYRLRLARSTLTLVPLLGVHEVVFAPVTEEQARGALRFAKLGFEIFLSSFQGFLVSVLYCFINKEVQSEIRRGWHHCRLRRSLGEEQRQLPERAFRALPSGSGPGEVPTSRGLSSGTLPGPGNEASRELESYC

[2] = target: human GLP-1 receptor (GLP-1R) (Homo sapiens, UniProt P43220); test: cAMP pharmacological functional assay in presence of casein, hGLP-1R; type: cell-based; details: HEK293 cells expressing hGLP-1R, 0.1% Casein, geometric mean; read-out: hGLP1R cAMP Rel EC50 nM (SEM, n)
human GIP receptor = target: T3, human GIP receptor (Homo sapiens, UniProt P48546); test: [125I]-GIP binding (SPA), human GIP receptor; details: read-out: hGIPR Ki, nM (SEM, n)
T3 construct: expressed in transfected cells; crude membranes
T3 sequence (P48546 22-466): T2 sequence (P48546 22-466)

human GLP-1R, sequence (P43220 24-463): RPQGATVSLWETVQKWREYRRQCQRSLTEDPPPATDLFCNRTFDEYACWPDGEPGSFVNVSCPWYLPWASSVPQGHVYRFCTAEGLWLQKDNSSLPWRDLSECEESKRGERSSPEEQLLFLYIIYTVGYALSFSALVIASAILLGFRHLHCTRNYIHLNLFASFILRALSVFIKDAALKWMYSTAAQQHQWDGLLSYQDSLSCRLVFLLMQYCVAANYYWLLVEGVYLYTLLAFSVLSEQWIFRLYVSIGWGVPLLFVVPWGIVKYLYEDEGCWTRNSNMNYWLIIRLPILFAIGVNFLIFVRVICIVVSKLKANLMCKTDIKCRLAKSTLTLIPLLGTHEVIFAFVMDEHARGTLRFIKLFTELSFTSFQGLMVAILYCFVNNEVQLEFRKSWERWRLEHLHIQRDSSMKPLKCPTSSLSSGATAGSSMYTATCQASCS
human GLP-1 receptor (GLP-1R), sequence (P43220 24-463): as above
T1 sequence (P47871 26-477): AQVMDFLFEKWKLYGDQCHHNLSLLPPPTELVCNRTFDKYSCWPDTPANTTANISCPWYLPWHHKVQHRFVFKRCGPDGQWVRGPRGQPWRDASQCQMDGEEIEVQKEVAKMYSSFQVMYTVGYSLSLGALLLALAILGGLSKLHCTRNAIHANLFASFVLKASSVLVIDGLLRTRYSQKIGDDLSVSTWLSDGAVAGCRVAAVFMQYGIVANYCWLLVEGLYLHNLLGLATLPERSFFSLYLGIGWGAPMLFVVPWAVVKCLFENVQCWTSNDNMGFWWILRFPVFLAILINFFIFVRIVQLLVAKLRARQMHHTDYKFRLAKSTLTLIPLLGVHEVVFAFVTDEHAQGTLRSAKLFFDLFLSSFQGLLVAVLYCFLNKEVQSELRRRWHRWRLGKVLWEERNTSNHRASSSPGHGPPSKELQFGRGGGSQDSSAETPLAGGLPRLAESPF

Compound	Ki (human Gcg receptor) [nM]	Ki (human GLP-1R) [nM]	EC50 [1] [nM]	EC50 [2] [nM]	Ki (human GIP receptor) [nM]
CC[C@H](C)[C@H](NC(=O)[C@H](CC(C)C)NC(=O)[C@H](Cc1ccc(O)cc1)NC(=O)[C@H](CCC(=O)O)NC(=O)[C@@H](NC(=O)[C@](C)(Cc1ccccc1)NC(=O)[C@H](C)NC(=O)C(C)(C)NC(=O)[C@H](CCC(N)=O)NC(=O)[C@H](C)NC(=O)[C@H](CCCCNC(=O)COCCOCCNC(=O)COCCOCCNC(=O)CC[C@H](NC(=O)CCCCCCCCCCCCCCCCCCC(=O)O)C(=O)O)NC(=O)[C@H](CCCCN)NC(=O)[C@H](CC(=O)O)NC(=O)[C@H](CC(C)C)NC(=O)[C@H](CC(C)C)NC(=O)[C@@H](NC(=O)[C@H](CO)NC(=O)[C@H](Cc1ccc(O)cc1)NC(=O)[C@H](CC(=O)O)NC(=O)[C@H](CO)NC(=O)[C@@H](NC(=O)[C@H](Cc1ccccc1)NC(=O)[C@@H](NC(=O)CNC(=O)[C@H](CCC(=O)O)NC(=O)C(C)(C)NC(=O)[C@@H](N)Cc1ccc(O)cc1)[C@@H](C)O)[C@@H](C)O)[C@@H](C)CC)[C@@H](C)CC)C(=O)N[C@@H](CCC(=O)O)C(=O)NCC(=O)NCC(=O)N1CCC[C@H]1C(=O)N[C@@H](CO)C(=O)N[C@@H](CO)C(=O)NCC(=O)N[C@@H](C)C(=O)N1CCC[C@H]1C(=O)N1CCC[C@H]1C(=O)N1CCC[C@H]1C(=O)N[C@@H](CO)C(N)=O [Example 67]	270	10.2	0.0913	0.447	0.061
CC[C@H](C)[C@H](NC(=O)[C@H](CC(C)C)NC(=O)[C@H](Cc1ccc(O)cc1)NC(=O)[C@H](CCC(=O)O)NC(=O)[C@@H](NC(=O)[C@H](Cc1ccccc1)NC(=O)[C@H](C)NC(=O)C(C)(C)NC(=O)[C@H](CCC(N)=O)NC(=O)[C@H](C)NC(=O)[C@H](CCCCNC(=O)COCCOCCNC(=O)COCCOCCNC(=O)CC[C@H](NC(=O)CCCCCCCCCCCCCCCCCCC(=O)O)C(=O)O)NC(=O)[C@H](CCCCN)NC(=O)[C@H](CC(=O)O)NC(=O)[C@H](CC(C)C)NC(=O)[C@H](CC(C)C)NC(=O)[C@@H](NC(=O)[C@](C)(CO)NC(=O)[C@H](Cc1ccc(O)cc1)NC(=O)[C@H](CC(=O)O)NC(=O)[C@H](CO)NC(=O)[C@@H](NC(=O)[C@H](Cc1ccccc1)NC(=O)[C@@H](NC(=O)CNC(=O)[C@H](CCC(=O)O)NC(=O)C(C)(C)NC(=O)[C@@H](N)Cc1ccc(O)cc1)[C@@H](C)O)[C@@H](C)O)[C@@H](C)CC)[C@@H](C)CC)C(=O)N[C@@H](CCC(=O)O)C(=O)NCC(=O)NCC(=O)N1CCC[C@H]1C(=O)N[C@@H](CO)C(=O)N[C@@H](CO)C(=O)NCC(=O)N[C@@H](C)C(=O)N1CCC[C@H]1C(=O)N1CCC[C@H]1C(=O)N1CCC[C@H]1C(=O)N[C@@H](CO)C(N)=O [Example 68]	99.2	1.58	0.0881	0.153	0.0243
CC[C@H](C)[C@H](NC(=O)[C@H](CC(C)C)NC(=O)[C@H](Cc1ccc(O)cc1)NC(=O)[C@H](CCC(=O)O)NC(=O)[C@@H](NC(=O)[C@](C)(Cc1ccccc1)NC(=O)[C@H](C)NC(=O)C(C)(C)NC(=O)[C@H](CCC(N)=O)NC(=O)[C@H](C)NC(=O)[C@H](CCCCNC(=O)COCCOCCNC(=O)COCCOCCNC(=O)CC[C@H](NC(=O)CCCCCCCCCCCCCCCCCCC(=O)O)C(=O)O)NC(=O)[C@H](CCCCN)NC(=O)[C@H](CC(=O)O)NC(=O)[C@H](CC(C)C)NC(=O)[C@](C)(CC(C)C)NC(=O)[C@@H](NC(=O)[C@H](CO)NC(=O)[C@H](Cc1ccc(O)cc1)NC(=O)[C@H](CC(=O)O)NC(=O)[C@H](CO)NC(=O)[C@@H](NC(=O)[C@H](Cc1ccccc1)NC(=O)[C@@H](NC(=O)CNC(=O)[C@H](CCC(=O)O)NC(=O)C(C)(C)NC(=O)[C@@H](N)Cc1ccc(O)cc1)[C@@H](C)O)[C@@H](C)O)[C@@H](C)CC)[C@@H](C)CC)C(=O)N[C@@H](CCC(=O)O)C(=O)NCC(=O)NCC(=O)N1CCC[C@H]1C(=O)N[C@@H](CO)C(=O)N[C@@H](CO)C(=O)NCC(=O)N[C@@H](C)C(=O)N1CCC[C@H]1C(=O)N1CCC[C@H]1C(=O)N1CCC[C@H]1C(=O)N[C@@H](CO)C(N)=O [Example 74]	69.8	5.99	0.0866	0.467	0.0279
CC[C@H](C)[C@H](NC(=O)[C@H](Cc1ccccc1)NC(=O)[C@H](C)NC(=O)C(C)(C)NC(=O)[C@H](CCC(N)=O)NC(=O)[C@H](C)NC(=O)[C@H](CCCCNC(=O)COCCOCCNC(=O)COCCOCCNC(=O)CC[C@H](NC(=O)CCCCCCCCCCCCCCCCCCC(=O)O)C(=O)O)NC(=O)[C@H](CCCCN)NC(=O)[C@H](CC(=O)O)NC(=O)[C@H](CC(C)C)NC(=O)[C@](C)(CC(C)C)NC(=O)[C@@H](NC(=O)[C@H](CO)NC(=O)[C@H](Cc1ccc(O)cc1)NC(=O)[C@H](CC(=O)O)NC(=O)[C@H](CO)NC(=O)[C@@H](NC(=O)[C@H](Cc1ccccc1)NC(=O)[C@@H](NC(=O)CNC(=O)[C@H](CCC(=O)O)NC(=O)C(C)(C)NC(=O)[C@@H](N)Cc1ccc(O)cc1)[C@@H](C)O)[C@@H](C)O)[C@@H](C)CC)C(=O)N[C@@H](CCC(=O)O)C(=O)N[C@@H](Cc1ccc(O)cc1)C(=O)N[C@@](C)(CC(C)C)C(=O)N[C@H](C(=O)N[C@@H](CCC(=O)O)C(=O)NCC(=O)NCC(=O)N1CCC[C@H]1C(=O)N[C@@H](CO)C(=O)N[C@@H](CO)C(=O)NCC(=O)N[C@@H](C)C(=O)N1CCC[C@H]1C(=O)N1CCC[C@H]1C(=O)N1CCC[C@H]1C(=O)N[C@@H](CO)C(N)=O)[C@@H](C)CC [Example 75]	283	24.4	0.214	1.49	0.103
CC[C@H](C)[C@H](NC(=O)[C@H](CC(C)C)NC(=O)[C@H](Cc1ccc(O)cc1)NC(=O)[C@H](CCC(=O)O)NC(=O)[C@@H](NC(=O)[C@](C)(Cc1ccccc1)NC(=O)[C@H](C)NC(=O)C(C)(C)NC(=O)[C@H](CCC(N)=O)NC(=O)[C@H](C)NC(=O)[C@H](CCCCNC(=O)COCCOCCNC(=O)COCCOCCNC(=O)CC[C@H](NC(=O)CCCCCCCCCCCCCCCCCCC(=O)O)C(=O)O)NC(=O)[C@H](CCCCN)NC(=O)[C@H](CC(=O)O)NC(=O)[C@H](CC(C)C)NC(=O)[C@](C)(CC(C)C)NC(=O)[C@@H](NC(=O)[C@H](CO)NC(=O)[C@H](Cc1ccc(O)cc1)NC(=O)[C@H](CC(=O)O)NC(=O)[C@H](CO)NC(=O)[C@@H](NC(=O)[C@](C)(Cc1ccccc1)NC(=O)[C@@H](NC(=O)CNC(=O)[C@H](CCC(=O)O)NC(=O)C(C)(C)NC(=O)[C@@H](N)Cc1ccc(O)cc1)[C@@H](C)O)[C@@H](C)O)[C@@H](C)CC)[C@@H](C)CC)C(=O)N[C@@H](CCC(=O)O)C(=O)NCC(=O)NCC(=O)N1CCC[C@H]1C(=O)N[C@@H](CO)C(=O)N[C@@H](CO)C(=O)NCC(=O)N[C@@H](C)C(=O)N1CCC[C@H]1C(=O)N1CCC[C@H]1C(=O)N1CCC[C@H]1C(=O)N[C@@H](CO)C(N)=O [Example 76]	14.4	2.64	0.124	0.125	0.0659
CC[C@H](C)[C@H](NC(=O)[C@H](CC(C)C)NC(=O)[C@H](Cc1ccc(O)cc1)NC(=O)[C@H](CCC(=O)O)NC(=O)[C@@H](NC(=O)[C@H](Cc1ccccc1)NC(=O)[C@H](C)NC(=O)C(C)(C)NC(=O)[C@H](CCC(N)=O)NC(=O)[C@H](C)NC(=O)[C@H](CCCCNC(=O)COCCOCCNC(=O)COCCOCCNC(=O)CC[C@H](NC(=O)CCCCCCCCCCCCCCCCCCC(=O)O)C(=O)O)NC(=O)[C@H](CCCCN)NC(=O)[C@H](CC(=O)O)NC(=O)[C@H](CC(C)C)NC(=O)[C@H](CC(C)C)NC(=O)[C@@H](NC(=O)[C@H](CO)NC(=O)[C@H](Cc1ccc(O)cc1)NC(=O)[C@H](CC(=O)O)NC(=O)[C@H](CO)NC(=O)[C@@H](NC(=O)[C@H](Cc1ccccc1)NC(=O)[C@@H](NC(=O)CNC(=O)[C@H](CCC(=O)O)NC(=O)C(C)(C)NC(=O)[C@H](N)Cc1ccc(O)cc1)[C@@H](C)O)[C@@H](C)O)[C@@H](C)CC)[C@@H](C)CC)C(=O)N[C@@H](CCC(=O)O)C(=O)NCC(=O)NCC(=O)N1CCC[C@H]1C(=O)N[C@@H](CO)C(=O)N[C@@H](CO)C(=O)NCC(=O)N[C@@H](C)C(=O)N1CCC[C@H]1C(=O)N1CCC[C@H]1C(=O)N1CCC[C@H]1C(=O)N[C@@H](CO)C(N)=O [Example 78]	215	3.94	0.532	0.544	0.163
